Tests used:
[1] = Circular dichroism spectroscopy (secondary structure); assay type: physicochemical; conditions: for % Helix (CD): CD in DMPC/DMPG (7/3) SUVs, P/L = 1:50, 10 mM phosphate buffer pH 7.0, 30 °C, peptide 29.3 μM, deconvolution with CDSSTR, CONTIN-LL, SELCON-3
Excerpt: Next, we compared the secondary structure of the full set of latarcins in the presence of lipid membranes, for which there are no complete data available yet.
The CD line shapes (Figure 2) were deconvoluted to estimate the secondary structure contributions (Supplementary Table S1) using the CDSSTR, CONTIN-LL, and SELCON-3 algorithms provided on the DICHROWEB online server as described previously. […] In peptides containing a high proportion of aromatic residues, such shifts of the long-wavelength band are well documented.
Small unilamellar vesicles (SUVs) for the CD measurements were prepared as follows. Weighed amounts of the lipid powders (DMPC, DMPG) were dissolved in chloroform/methanol 1/1 (v/v) to obtain 5 mg/mL stock solutions. For obtaining mixed DMPC/DMPG liposomes (7/3 molar ratio), the appropriate aliquots of these stock solutions were pipetted in a glass vial and thoroughly vortexed. The organic solvents were removed under a gentle stream of nitrogen gas, followed by 3 h of vacuum pumping in an exsiccator at a reduced pressure of 3-4 mbars to remove solvent residuals from the lipid film that had formed in the vial. The lipid film was dispersed by the addition of 10 mM phosphate buffer (PB) pH 7.0 and homogenized by vigorously vortexing for 10 × 1 min and 10 freeze–thaw cycles. SUVs were formed by sonication of the obtained multilamellar vesicles for 16 min in a strong ultrasonic bath (UTR 200, Hielscher, Germany). The temperature of the water in the ultrasonic bath was adjusted to 35 °C by circulating it through a thermostat to avoid overheating the samples. A weighed amount of the corresponding peptide was dissolved in water resulting in stock solutions with a peptide concentration of 0.5 mg/mL. For the final CD samples, each peptide stock solution was diluted to 29.3 μM and the corresponding lipid dispersion to 1.47 mM in 10 mM PB, resulting in a peptide-to-lipid (P/L) ratio of 1/50.
[…] The samples were measured in a 1-millimeter path length quartz glass cell (Suprasil, Hellma Müllheim, Germany) between 260 and 185 nm at 0.5 nm intervals. Spectra of the liposome samples were recorded at 30 °C, i.e., well above the phase transition temperature of the lipids, using a water-thermostated rectangular cell holder. Three repeat scans at a scan rate of 10 nm min^−1, 8 s response time, and 1 nm bandwidth were averaged for each sample, and the baseline spectrum of the respective peptide-free sample was subtracted from the sample spectrum. CD spectra were smoothened by a Savitzky-Golay filter (convolution width of 15 data points), which is implemented in the Jasco Spectra Analysis software.

human red blood cells = assay: Hemolysis assay; conditions: peptide concentration 256 µg/mL, 30 min, 37 °C
Method: A hemolysis assay was performed to determine the activity of latarcins against human red blood cells, allowing us to compare the results to those of previous experiments in which rabbit erythrocytes were used. The activity was determined for each latarcin as a function of increasing concentration, up to a maximum of 256 µg of peptides per mL. […] The percentage hemolysis of the other peptides was determined at the highest tested concentration of 256 µg/mL.
The influence of latarcins on human erythrocytes was determined by using a hemolysis assay modified from previously published methods. Blood was obtained from the blood bank of the local hospital in Karlsruhe and stabilized with citrate phosphate dextrose buffer. Erythrocyte suspension (5 mL) was taken up in Tris buffer (45 mL, 172 mM, pH 7.6) at room temperature, gently mixed, and centrifuged (1500 rpm, 10 min). The supernatant solution was removed, and Tris wash was repeated twice with 45 mL as above. The washed erythrocytes (1 mL) were suspended in 9 mL Tris buffer to make the stock cell suspension, which was then further diluted to 0.25% (v/v) at 37 °C before use. Peptide stock solutions were prepared with 1024 µg/mL in Tris buffer containing 10% DMSO, and serial dilutions were prepared in the range of 512 µg/mL to 2 µg/mL as described previously. For the positive control, Triton X-100 (200 µL of 0.2% v/v) was used, and as the negative control, Tris buffer (200 µL, 172 mM) was used. Erythrocyte stock cell suspension (200 µL) was added to each of the samples and incubated for 30 min at 37 °C with gentle shaking before determining the percentage of hemolysis as described previously.

Row | Substance | % Helix (CD) [1] [%] | % Hemolysis (human red blood cells) [%] | helical fold (CD) in buffer without lipids ([1]; 10 mM phosphate buffer pH 7, no lipids, 30 °C)
1 | G E TF D K L K E K L K TFYQ K LV E K A ED L K G D L K A K LS-acid [Ltc7] | 89 | 2 | –
2 | H-GFFGKMKEYFKKFGASFKRRFANLKKRL-NH2 [Ltc5] | 85 | 27 | –
3 | H-GLKDKFKSMGEKLKQYIQTWKAKF-NH2 [Ltc4a] | 94 | 12 | –
4 | H-QAFQTFKPDWNKIRYDAMKMQTSLGQMKKRFNL-OH [Ltc6a] | 65 | 3 | –
5 | H-SWKSMAKKLKEYMEKLKQRA-NH2 [Ltc3a] | 87 | 16 | ca. 30%

Reference: publication PMC8470881, “Membrane Interactions of Latarcins: Antimicrobial Peptides from Spider Venom” (International Journal of Molecular Sciences, 2021)
